{"source": "patent US12257246B2", "about": "“Composition of 2,4,6-trifluoro-n-[6-(1-methyl-piperidin-4-carbonyl)-pyridin-2-yl[-benzamide” (CoLucid Pharmaceuticals, Inc., priority 2009, dated 2025)", "key": {"[1]": {"system": "healthy male and female subjects", "test": "Oral safety and tolerability, Study 1 and Study 2", "assay_type": "in vivo, human", "set-up": "Subjects with Nausea: dose or concentration left out as unconfirmed"}, "[2]": {"test": "Oral pharmacokinetics (solution and tablet), Study 1 and Study 2", "assay_type": "in vivo, human", "procedure": "Plasma samples were analyzed for Compound I using a validated liquid chromatography with tandem mass spectrometric detection (LC/MS/MS) method. Relative bioavailability of tablet and solution formulations for AUCt, AUC∞, and Cmax were assessed. A linear mixed effects model was fitted to the log-transformed PK parameters (AUCt, AUC∞, and Cmax). Included in the model were treatment, period, and sequence as fixed factors and subjects nested within sequences as a random factor. For the relative bioavailability analysis, the tablet formulation was the test and the solution formulation was the reference. 90% confidence intervals and ratios for the relative mean in-transformed AUCt, AUC∞, and Cmax of the test to reference formulation were calculated."}, "rabbit saphenous vein": {"system": "rabbit saphenous vein", "settings": "concentrations up to 0.1 mM; cited from earlier work"}, "[3]": {"target": "T1, Human 5-HT1F receptor transfected NIH3T3 cells (Homo sapiens, UniProt P30939)", "T1 construct": "expressed in transfected cells; host or cells: NIH3T3 cells", "T1 sequence (P30939 1-366)": "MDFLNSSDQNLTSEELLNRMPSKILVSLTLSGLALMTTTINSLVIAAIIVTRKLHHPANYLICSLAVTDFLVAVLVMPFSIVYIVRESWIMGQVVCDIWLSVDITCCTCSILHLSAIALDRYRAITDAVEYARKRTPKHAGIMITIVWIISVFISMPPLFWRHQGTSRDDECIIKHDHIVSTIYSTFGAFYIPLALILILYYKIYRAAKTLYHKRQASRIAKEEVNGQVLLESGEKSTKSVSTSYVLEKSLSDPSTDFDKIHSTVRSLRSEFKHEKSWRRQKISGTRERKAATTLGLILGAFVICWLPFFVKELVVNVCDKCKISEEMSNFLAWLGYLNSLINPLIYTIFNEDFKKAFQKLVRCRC", "test": "Inhibition of forskolin stimulated cAMP formation", "assay_type": "cell-based", "procedure": "As was reported by R. L. Weinshank, et al., WO93/14201, the 5-HT1F receptor is functionally coupled to a G-protein as measured by the ability of serotonin and serotonergic drugs to inhibit forskolin stimulated cAMP production in NIH3T3 cells transfected with the 5-HT1F receptor. Adenylate cyclase activity was determined using standard techniques. A maximal effect is achieved by serotonin. An Emax is determined by dividing the inhibition of a test compound by the maximal effect and determining a percent inhibition. N. Adham, et al., supra; R. L. Weinshank, et al., Proceedings of the National Academy of Sciences (USA), 89:3630-3634, 1992; and the references cited therein.\nHuman 5-HT1F receptor transfected NIH3T3 cells (estimated Bmax from one point competition studies=488 fmol/mg of protein) were incubated in DMEM, 5 mM theophylline, 10 mM HEPES (4-[2-hydroxyethyl]-1-piperazineethanesulfonic acid) and 10 μM pargyline for 20 minutes at 37° C., 5% CO2. Drug dose-effect curves were then conducted by adding 6 different final concentrations of drug, followed immediately by the addition of forskolin (10 μM). Subsequently, the cells were incubated for an additional 10 minutes at 37° C., 5% CO2. The medium was aspirated and the reaction was stopped by the addition of 100 mM HCl. […] Radioactivity was quantified using a Packard COBRA Auto Gamma counter, equipped with data reduction software."}, "patients with migraine": {"system": "patients with migraine", "test": "Intravenous dose-finding study in acute migraine: tolerability and safety", "assay_type": "in vivo, human", "procedure": "The study used a prospective, randomized, double-blind, placebo-controlled design with group-sequential adaptive-treatment assignment (Olesen J et al., N Engl J Med 2004: 350: 1104-10; Hall D B et al., Contemporary Clinical Trials 2005; 26: 349-63). […] The first cohort was allocated to the 2.5 mg dose level. The dose used in subsequent cohorts depended on the headache response (moderate or severe headache reduced to mild or none at 2 hours) of the previous cohort: if 2 or less of the 4 active-treated patients had responded, the dose was increased, and if 3 or more of the 4 active-treated patients had responded, the dose was reduced. The dose adjustment rules were chosen to identify doses of Compound I with efficacy similar to or better than an oral triptan. […] The occurrence of a drug-related serious adverse event would lead to automatic suspension of the randomization pending a safety review.\nData were entered concurrently into an online electronic data capture system. Patients were discharged from the clinic after 4 h and continued to record migraine symptoms and adverse events until 24 h using a diary card."}, "[4]": {"settings": "Study 2 Part 1, 200 mg tablet (N = 28)"}, "[5]": {"settings": "Study 2 Part 1, 200 mg tablet (N = 29)"}, "[6]": {"settings": "Study 2 Part 2, 50 mg tablet (N = 28)"}, "[7]": {"settings": "Study 2 Part 2, 400 mg tablet (N = 28)"}}, "note": "“Also recorded” adds a separate entry of the source.", "data": [{"smiles": "CN1CCC(C(=O)c2cccc(NC(=O)c3c(F)cc(F)cc3F)n2)CC1", "note": "[Compound I, 2,4,6-trifluoro-N-[6-(1-methyl-piperidin-4-ylcarbonyl)-pyridin-2-yl]-benzamide]", "values": [{"measurement": "Subjects with Blurred vision", "setting": "[1]; [4]", "result": 0, "unit": "n"}, {"measurement": "Subjects with Feeling hot", "setting": "[1]; [4]", "result": 0, "unit": "n"}, {"measurement": "Subjects with Palpitations", "setting": "[1]; [4]", "result": 0, "unit": "n"}, {"measurement": "Subjects with Blurred vision", "setting": "[1]; [5]", "result": 0, "unit": "n"}, {"measurement": "Subjects with Diarrhea", "setting": "[1]; [5]", "result": 0, "unit": "n"}, {"measurement": "Subjects with Feeling hot", "setting": "[1]; [5]", "result": 0, "unit": "n"}, {"measurement": "Subjects with Headache", "setting": "[1]; [5]", "result": 0, "unit": "n"}, {"measurement": "Subjects with Palpitations", "setting": "[1]; [5]", "result": 0, "unit": "n"}, {"measurement": "Subjects with Blurred vision", "setting": "[1]; [6]", "result": 0, "unit": "n"}, {"measurement": "Subjects with Diarrhea", "setting": "[1]; [6]", "result": 0, "unit": "n"}, {"measurement": "Subjects with Feeling hot", "setting": "[1]; [6]", "result": 0, "unit": "n"}, {"measurement": "Subjects with Headache", "setting": "[1]; [6]", "result": 0, "unit": "n"}, {"measurement": "Subjects with Diarrhea", "setting": "[1]; [7]", "result": 0, "unit": "n"}, {"measurement": "Subjects with Palpitations", "setting": "[1]; [7]", "result": 0, "unit": "n"}, {"measurement": "Subjects with Nausea", "setting": "[1]; Study 2 Part 2, tablet (N = 28)", "result": 0, "unit": "n"}, {"measurement": "fatigue, females", "setting": "[1]; after the 400 mg oral dose", "result": 50, "unit": "%"}, {"measurement": "fatigue, males", "setting": "[1]; after the 400 mg oral dose", "result": 21, "unit": "%"}, {"measurement": "tolerability", "setting": "[1]; all oral doses of solution and tablet", "result": "well tolerated"}, {"measurement": "tolerability", "setting": "[1]; doses above 400 mg administered orally", "result": "not well tolerated"}, {"measurement": "solubility", "setting": "Solubility (statement)", "result": "high solubility"}, {"measurement": "Tmax", "setting": "[2]; both sexes, human, plasma, 50 to 400 mg tablet formulation, oral, read-out: Median tmax", "result": "1.5 to 2.5", "unit": "h"}, {"measurement": "oral bioavailability", "setting": "[2]; human, in vivo, po", "result": "orally bioavailable"}, {"measurement": "bioavailability", "setting": "[2]; male, human, plasma, 200 mg oral dose, read-out: relative bioavailability of the tablet to the solution", "result": 100, "unit": "%"}, {"measurement": "dose linearity / proportionality of oral pharmacokinetics", "setting": "[2]; oral 25 to 400 mg, males and females", "result": "dose linearity; also recorded: dose proportionality"}, {"measurement": "oral dose achieving plasma levels previously associated with efficacy by the i.v. route", "setting": "[2]; solution and tablet", "result": "≥ 50", "unit": "mg"}, {"measurement": "constriction of rabbit saphenous vein", "setting": "rabbit saphenous vein", "result": "did not constrict"}, {"measurement": "functional activity in cAMP assay", "setting": "[3]", "result": "agonist of the 5-HT1F receptor"}, {"measurement": "Patients with adverse event Fatigue", "setting": "patients with migraine; 2.5 mg iv", "result": 0.0, "unit": "%"}, {"measurement": "Patients with adverse event Feeling of relaxation", "setting": "patients with migraine; 2.5 mg iv", "result": 0.0, "unit": "%"}, {"measurement": "Patients with adverse event Paresthesia", "setting": "patients with migraine; 2.5 mg iv", "result": 0.0, "unit": "%"}, {"measurement": "Patients with adverse event Sensation of heaviness", "setting": "patients with migraine; 2.5 mg iv", "result": 0.0, "unit": "%"}, {"measurement": "Patients with adverse event Feeling of relaxation", "setting": "patients with migraine; 5 mg iv", "result": 0.0, "unit": "%"}, {"measurement": "Patients with adverse event Paresthesia", "setting": "patients with migraine; 5 mg iv", "result": 0.0, "unit": "%"}, {"measurement": "Patients with adverse event Sensation of heaviness", "setting": "patients with migraine; 5 mg iv", "result": 0.0, "unit": "%"}, {"measurement": "Patients with adverse event Feeling of relaxation", "setting": "patients with migraine; 10 mg iv", "result": 0.0, "unit": "%"}, {"measurement": "Patients with adverse event Fatigue", "setting": "patients with migraine; 45 mg iv", "result": 0.0, "unit": "%"}, {"measurement": "Patients with adverse event Feeling of relaxation", "setting": "patients with migraine; 45 mg iv", "result": 0.0, "unit": "%"}, {"measurement": "Patients with adverse event Sensation of heaviness", "setting": "patients with migraine; 45 mg iv", "result": 0.0, "unit": "%"}, {"measurement": "patients reporting adverse events", "setting": "patients with migraine; all iv doses 2.5 to 45 mg (placebo 43%)", "result": 65, "unit": "%"}, {"measurement": "tolerability", "setting": "patients with migraine; doses above 60 mg intravenously over 20 minutes", "result": "not well tolerated"}, {"measurement": "serious adverse events or withdrawals", "setting": "patients with migraine; iv", "result": "no serious adverse events or withdrawals due to non-serious adverse events"}, {"measurement": "vital signs, ECG, hematological and clinical chemistry parameters", "setting": "patients with migraine; iv", "result": "No clinically significant changes; also recorded: no clinically significant abnormalities"}, {"measurement": "tolerability", "setting": "patients with migraine; iv 2.5 to 45 mg over 20 min", "result": "generally well tolerated"}, {"measurement": "triptan-like chest symptoms", "setting": "patients with migraine; iv infusion", "result": "No patient reported triptan-like chest symptoms; also recorded: no patient-reported chest symptoms or chest discomfort"}]}]}
